System: subcutaneous HCT-116 (colon cancer) xenograft
Assay: In Vivo Cancer Xenograft Assay, HCT-116
Design: species or system nude mice
Details: 5 or 10 mg/kg daily IP, tumor volume to day 26
Description: Compound F was evaluated for in vivo therapeutic efficacy in the treatment of subcutaneous HCT-116 (colon cancer) and Calu-6 (lung cancer) xenograft models in nude mice.
Each mouse was inoculated subcutaneously at the flank region with either HCT-116 or Calu-6 tumor cells ([…]) in 0.1 ml of 1×PBS mixed with Matrigel (1:1) for tumor development and xenotransplantation.
Twenty (20) animals with approx […] tumors were selected for HCT-116 follow up experiment and randomly placed into Groups 1, 2, 3, and 4, wherein Group 1 was for mice administered with a vehicle negative control; Group 2 was positive control of Mice treated with Bevacizumab at 5 mg/kg every three days; Group 3 was mice treated with 5 mg/kg of Compound f daily for up to 20 days; and Group 4 was mice treated with 10 mg/kg of Compound F daily for up to 20 days. The vehicle with or without drug was administered to the mouse by intraperitoneal injection. […]
After tumor cells inoculation, the animals were checked daily for morbidity and mortality. […] Death and observed clinical signs were recorded. Tumor volumes were measured every three days in two dimensions using an electronic caliper, and the volume data are expressed in mm^3 using the formula: V=0.5 a×b2 where a and b are the long and short diameters of the tumor, respectively. Tumor volume average was then recorded for each day for groups 1-4 until day 26. […]

For `Cc1ccccc1C(=O)Nc1nc(NC(=O)c2ccccc2C)n(-c2ccccc2)n1` [Compound F, 2-methyl-N-[5-[(2-methylbenzoyl)amino]-1-phenyl-1,2,4-triazol-3-yl]benzamide], the “delay of subcutaneous HCT-116 tumor growth” value was “effective of delaying growth”.
